In patent US20220127565A1, “A Self-Assembling Short Amphiphilic Peptide And Related Methods And Uses” (Agency for Science, Technology and Research, priority 2019, published 2022):
Residues, ends and D or L forms follow the SMILES beside them.

What was measured:
[1] = Gelation / hydrogel formation, minimum gelation concentration in water, buffered saline or PBS; assay type: physicochemical; settings: for Self-assembly into hydrogels / scaffolds: aqueous conditions; for Self-assembly into hydrogels / scaffolds / Minimum gelation concentration in buffered saline: buffered saline
Experimental: Preparation of Hydrogels.
Lyophilized peptide powder was dissolved in milliQ water and mixed for 30 seconds by vortexing to obtain a homogenous solution. 10% volume of 10-times phosphate-buffered saline was subsequently added and mixed by pipetting. Gelation occurred between seconds (PBS) to overnight (water), depending on the peptide concentration and solution used.

[2] = TGA degradation temperature; assay type: physicochemical
[3] = Thixotropy of hydrogel, recovery after vortexing; assay type: physicochemical; settings: hydrogel disturbed by vortexing
[4] = Circular dichroism spectroscopy, secondary structure transitions with increasing peptide concentration; assay type: physicochemical; settings: for Secondary structure transitions: Table 1; for Secondary structure / conformational transitions (circular dichroism): increasing peptide concentration
Experimental: Circular Dichroism Spectroscopy.
CD spectra were collected with a Jasco CD spectrophotometer fitted with a temperature controller, using quartz suprasil cuvettes with an optical path length of 1 mm. All samples were prepared in milIQ water and equilibrated for an hour at room temperature before measurement. Data acquisition was performed for wavelength range from 190-260 nm with a spectral bandwidth of 1.0 nm. All spectra were baseline-corrected using milliQ water as baseline. The mean residue ellipticity (MRE) was calculated as follows:
[θ]=θ/(10·N·c·l) where […] represents the ellipticity in millidegrees, N the number of amino acid residues, c the molar concentration in mol·L-1, and I the cell path length in cm.

[5] = Gelation in dimethylsulfoxide; assay type: physicochemical
[6] = tested on: 8 cm×8 cm excisional full thickness wound; test: Porcine wound healing study of peptide hydrogel wound dressings; assay type: in vivo; settings: hydrogel applied weekly for 6 weeks
Experimental: A porcine wound healing study was performed to evaluate the peptide hydrogels for wound healing applications. An 8 cm×8 cm excisional full thickness wound was created on the back of the animal, and three of the peptide hydrogels were applied using a polydimethylsiloxane mould. Wound dressing changes were carried out weekly for 6 weeks, with application of fresh hydrogel.

[7] = Rheology, storage modulus of hydrogels; assay type: physicochemical; settings: hydrogels prepared in buffered saline
Experimental: Hydrogel samples were prepared in polydimethysiloxane moulds to obtain approximately 1 mm thick, 8 mm diameter discs. Dynamic strain and oscillatory frequency sweep experiments were carried out using the ARES-G2 Rheometer (TA Instruments, Piscataway, N.J.) with 8 mm titanium parallel plate geometry. The readings of 3 samples were averaged for each condition.

[8] = tested on: embryonic stem cells H1 and H9; test: 3D culture of pluripotent stem cells encapsulated in hydrogel droplets; assay type: cell-based, human; settings: for Colony formation of single cell suspensions in hydrogel: H1 and H9, cell encapsulation densities exceeding 5×10^6 cells/mL
Experimental: (§1) 3D Encapsulation of Stem Cells.
(§2) H1 embryonic stem cells cultured on Matrigel were dissociated into single cells using TrypLE Express, and re-suspended in 50% mTESR in PBS at an approximate concentration of 4×10^6, 10^7 or 1.6×10^7 cells/mL. 0.5 μL of cells was injected into a droplet of 2 μL 10 mg/mL peptide solution. Warmed culture media (mTESR) containing ROCK inhibitor Y-27632 was added for the first day and replaced by either mTESR or endoderm differentiation media subsequently. The endoderm differentiation protocol was adapted from Spence et al (2011). Briefly, the encapsulated cells were exposed to RPMI media containing 100 ng/mL Activin A, 2 mM glutamax, 1% penicillin-streptomycin and increasing concentrations of defined fetal bovine serum. After 3 days, the hydrogel droplets were washed with RPMI and incubated in hindgut differentiation media (RPMI media containing 1% defined fetal bovine serum, 1% penicillin-streptomycin, 2 mM glutamax, 500 ng/mL FGF4 and 500 ng/mL Wnt3A.
Immunohistochemistry and Confocal Microscopy Imaging.
Cell samples were fixed in 4% paraformaldehyde for 15 minutes and permeabilized in 0.01% Triton-X for 10 minutes. The encapsulated human embryonic stem cells were incubated at 4° C. overnight in 5% Bovine-Serum Albumin containing primary antibodies. The corresponding secondary antibodies and DAPI were applied for 90 minutes before the samples were imaged. Confocal microscopy was performed using a Zeiss LSM 510 microscope at the Institute of Medical Biology Microscopy Unit (A*STAR, Singapore).

[9] = tested on: H1 human embryonic stem cells; test: Chromosomal aberrations after 5 passages of 3D culture; assay type: cell-based
Experimental: as §1, §2

H9 embryonic stem cells = test: 3D endoderm / hindgut differentiation of encapsulated stem cells (H9); assay type: cell-based, human; settings: H9 in 8 mg/mL hydrogel droplets

CC[C@H](C)[C@H](NC(=O)[C@@H](NC(=O)[C@H](CC(=O)O)NC(C)=O)C(C)C)C(N)=O [Ac-DVI-NH2] (Ac-Asp-Val-Ile-NH2)
[Peptide] min, PBS [1]: 9.9 mg/mL
Self-assembly into hydrogels / scaffolds [1]: self-assemble into nanofibrous scaffolds
[Peptide] min, water [1]: 11.6 mg/mL
TGA Degradation Temperature [2]: 321.5 °C
Standing time to return to gel state after vortexing [3]: 10 min

CC[C@H](C)[C@H](NC(C)=O)C(=O)N[C@H](C(=O)N[C@@H](CC(=O)O)C(=O)O)C(C)C [Ac-IVD, reference compound] (Ac-Ile-Val-Asp-OH; C-terminus assumed)
[Peptide] min, PBS [1]: 19.2 mg/mL
[Peptide] min, water [1]: 40.8 mg/mL
TGA Degradation Temperature [2]: 323.6 °C

CC[C@H](C)[C@H](NC(C)=O)C(=O)N[C@H](C(=O)N[C@@H](CC(=O)O)C(N)=O)C(C)C [Ac-IVD-NH2, reference compound] (Ac-Ile-Val-Asp-NH2)
[Peptide] min, PBS [1]: 33.9 mg/mL
[Peptide] min, water [1]: 44.9 mg/mL
TGA Degradation Temperature [2]: 328.5 °C

CC[C@H](C)[C@H](NC(C)=O)C(=O)N[C@H](C(=O)N[C@@H](CCCCN)C(N)=O)C(C)C [Ac-IVK-NH2, reference compound] (Ac-Ile-Val-Lys-NH2)
Secondary structure transitions [4]: Yes
Minimum gelation concentration in buffered saline [1]: >30 mg/mL

CC[C@H](C)[C@H](NC(=O)[C@@H](NC(=O)[C@H](CCCCN)NC(C)=O)C(C)C)C(N)=O [Ac-KVI-NH2] (Ac-Lys-Val-Ile-NH2)
Secondary structure transitions [4]: Yes
Secondary structure / conformational transitions (circular dichroism) [4]: same secondary structure transitions as their parent sequences
Minimum gelation concentration in buffered saline [1]: >30 mg/mL

Ac-GAVLI-NH2 [Ac-GAVLI-NH2]
Gel formation in dimethylsulfoxide [5]: thixotrophic gels

Ac-HGAVIA-NH2 [Ac-HGAVIA-NH2]
Gel formation in dimethylsulfoxide [5]: thixotrophic gels

Ac-HGAVLI-NH2 [Ac-HGAVLI-NH2]
Gel formation in dimethylsulfoxide [5]: thixotrophic gels
Reduction of wound size [6]: effective reduction of wound size

Ac-ILVAGK-NH2 [Ac-ILVAGK-NH2, reference compound]
Secondary structure transitions [4]: Yes
Minimum gelation concentration in buffered saline [1]: 3 mg/mL
Storage moduli of hydrogels [7]: ~10 kPa
Colony formation of single cell suspensions in hydrogel [8]: several colonies developed

Ac-KGAVLI-NH2 [Ac-KGAVLI-NH2]
Secondary structure transitions [4]: Yes
Secondary structure / conformational transitions (circular dichroism) [4]: same secondary structure transitions as their parent sequences
Minimum gelation concentration in buffered saline [1]: 3 mg/mL
Colony formation at lower cell seeding densities ([8]; 2×10^6 cells/mL): formation of several colonies within a single droplet
Colony formation of single cell suspensions in hydrogel [8]: more likely to aggregate into a single colony
Pluripotency, staining of Oct4 and Tral-60 biomarkers ([8]; cultured in defined mTESR media): retained their pluripotency
Retention of the expanding colonies ([8]; day 7, bioprinted hydrogel droplets encapsulating cells): higher retention of the expanding colonies
Cell migration and consistency in generating single colonies ([8]; synthetic 3D stem cell culture substrate, compared to Gen1 analog): enhanced cell migration and better consistency in generating single colonies
Mutagenicity, chromosomal aberrations [9]: non-mutagenic
Expression of hindgut biomarker Cdx2 (H9 embryonic stem cells; day 9): expression of hindgut biomarker Cdx2 was observed
Cells expressing Sox17, flow cytometry (H9 embryonic stem cells; definitive endoderm differentiation): 90%
Reduction of wound size [6]: effective reduction of wound size

Ac-SGAVIA-NH2 [Ac-SGAVIA-NH2]
Gel formation in dimethylsulfoxide [5]: thixotrophic gels

H-KGAVLI-NH2 [KGAVLI-NH2]
Secondary structure transitions [4]: Yes
Secondary structure / conformational transitions (circular dichroism) [4]: same conformational transitions
Self-assembly into hydrogels / scaffolds [1]: forms hydrogels in buffered saline
Minimum gelation concentration in buffered saline [1]: 20 mg/mL

H-SGAVLI-NH2 [SGAVLI-NH2]
Gel formation in dimethylsulfoxide [5]: thixotrophic gels
Reduction of wound size [6]: effective reduction of wound size
